According to ChEMBL document CHEMBL1201862, “PubChem BioAssay data set” (2004):
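Each compound was tested at five concentrations against cells in 96-well plates for 48 hours. GI50 = concentration required for 50% inhibition of growth.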 The source made the active and inactive calls. Rule as the data show it: active = GI50 up to about 1.1 µM and inactive = higher.

Legend:
Experiment in all cases: NCI anticancer screen, dose series, 48 h
786-0 = tested on: 786-0
A498 = tested on: A498
A549 = tested on: A549
ACHN = tested on: ACHN
CAKI-1 = tested on: CAKI-1
CCRF-CEM = tested on: CCRF-CEM
COLO 205 = tested on: COLO 205
DLD-1 = tested on: DLD-1
DMS-273 = tested on: DMS-273
EKVX = tested on: EKVX
HCC 2998 = tested on: HCC 2998
HCT-116 = tested on: HCT-116
HCT-15 = tested on: HCT-15
HL-60 = tested on: HL-60
HOP-18 = tested on: HOP-18
HOP-62 = tested on: HOP-62
HOP-92 = tested on: HOP-92
HT-29 = tested on: HT-29
IGROV-1 = tested on: IGROV-1
K562 = tested on: K562
KM-20L2 = tested on: KM-20L2
KM12 = tested on: KM12
LOX IMVI = tested on: LOX IMVI
LXFL 529 = tested on: LXFL 529
M14 = tested on: M14
M19-MEL = tested on: M19-MEL
MOLT-4 = tested on: MOLT-4
Malme-3M = tested on: Malme-3M
NCI-H226 = tested on: NCI-H226
NCI-H23 = tested on: NCI-H23
NCI-H460 = tested on: NCI-H460
NCI-H522 = tested on: NCI-H522
OVCAR-3 = tested on: OVCAR-3
OVCAR-4 = tested on: OVCAR-4
OVCAR-5 = tested on: OVCAR-5
OVCAR-8 = tested on: OVCAR-8
RXF 393 = tested on: RXF 393
SF-268 = tested on: SF-268
SF-295 = tested on: SF-295
SF-539 = tested on: SF-539
SK-MEL-28 = tested on: SK-MEL-28
SK-MEL-2 = tested on: SK-MEL-2
SK-MEL-5 = tested on: SK-MEL-5
SK-OV-3 = tested on: SK-OV-3
SN12C = tested on: SN12C
SNB-19 = tested on: SNB-19
SNB-75 = tested on: SNB-75
SNB-78 = tested on: SNB-78
SR = tested on: SR
SW-620 = tested on: SW-620
TK-10 = tested on: TK-10
U-251 = tested on: U-251
UACC-257 = tested on: UACC-257
UACC-62 = tested on: UACC-62
UO-31 = tested on: UO-31
XF498 = tested on: XF498
DMS-114 = tested on: DMS-114
RPMI-8226 = tested on: RPMI-8226

O=C1CC(c2ccccc2)=Nc2ccccc2N1
GI50 (786-0): > 100 µM (inactive)
GI50 (A498): 24.7 µM (inactive)
GI50 (A549): > 100 µM (inactive)
GI50 (ACHN): > 100 µM (inactive)
GI50 (CAKI-1): > 100 µM (inactive)
GI50 (CCRF-CEM): 65 µM (inactive)
GI50 (COLO 205): 98.9 µM (inactive)
GI50 (DLD-1): > 100 µM (inactive)
GI50 (DMS-273): > 100 µM (inactive)
GI50 (EKVX): > 100 µM (inactive)
GI50 (HCC 2998): > 100 µM (inactive)
GI50 (HCT-116): 86.5 µM (inactive)
GI50 (HCT-15): > 100 µM
GI50 (HL-60): 34.5 µM (inactive)
GI50 (HOP-18): > 100 µM (inactive)
GI50 (HOP-62): > 100 µM (inactive)
GI50 (HOP-92): 81.1 µM (inactive)
GI50 (HT-29): > 100 µM (inactive)
GI50 (IGROV-1): > 100 µM (inactive)
GI50 (K562): > 100 µM (inactive)
GI50 (KM-20L2): > 100 µM (inactive)
GI50 (KM12): > 100 µM (inactive)
GI50 (LOX IMVI): 35 µM (inactive)
GI50 (LXFL 529): > 100 µM (inactive)
GI50 (M14): > 100 µM (inactive)
GI50 (M19-MEL): > 100 µM (inactive)
GI50 (MOLT-4): > 100 µM (inactive)
GI50 (Malme-3M): > 100 µM (inactive)
GI50 (NCI-H226): > 100 µM (inactive)
GI50 (NCI-H23): > 100 µM (inactive)
GI50 (NCI-H460): 42 µM (inactive)
GI50 (NCI-H522): > 100 µM (inactive)
GI50 (OVCAR-3): > 100 µM (inactive)
GI50 (OVCAR-4): > 100 µM (inactive)
GI50 (OVCAR-5): > 100 µM (inactive)
GI50 (OVCAR-8): > 100 µM (inactive)
GI50 (RXF 393): > 100 µM (inactive)
GI50 (SF-268): > 100 µM (inactive)
GI50 (SF-295): > 100 µM (inactive)
GI50 (SF-539): > 100 µM (inactive)
GI50 (SK-MEL-28): > 100 µM (inactive)
GI50 (SK-MEL-2): > 100 µM (inactive)
GI50 (SK-MEL-5): > 100 µM (inactive)
GI50 (SK-OV-3): > 100 µM (inactive)
GI50 (SN12C): > 100 µM (inactive)
GI50 (SNB-19): > 100 µM (inactive)
GI50 (SNB-75): > 100 µM (inactive)
GI50 (SNB-78): > 100 µM (inactive)
GI50 (SR): > 100 µM (inactive)
GI50 (SW-620): 21.1 µM (inactive)
GI50 (TK-10): > 100 µM (inactive)
GI50 (U-251): > 100 µM (inactive)
GI50 (UACC-257): > 100 µM (inactive)
GI50 (UACC-62): > 100 µM (inactive)
GI50 (UO-31): > 100 µM (inactive)
GI50 (XF498): > 100 µM (inactive)

Cc1ccc2c(c1)C(=O)N(N(C)C)CC(=O)N2
GI50 (A498): > 100 µM (inactive)
GI50 (A549): > 100 µM (inactive)
GI50 (ACHN): > 100 µM (inactive)
GI50 (CAKI-1): > 100 µM (inactive)
GI50 (CCRF-CEM): > 100 µM (inactive)
GI50 (COLO 205): > 100 µM (inactive)
GI50 (DLD-1): > 100 µM (inactive)
GI50 (DMS-114): > 100 µM (inactive)
GI50 (DMS-273): > 100 µM (inactive)
GI50 (EKVX): > 100 µM (inactive)
GI50 (HCC 2998): > 100 µM (inactive)
GI50 (HCT-116): > 100 µM (inactive)
GI50 (HCT-15): > 100 µM
GI50 (HL-60): > 100 µM (inactive)
GI50 (HOP-18): > 100 µM (inactive)
GI50 (HOP-62): > 100 µM (inactive)
GI50 (HOP-92): > 100 µM (inactive)
GI50 (HT-29): > 100 µM (inactive)
GI50 (IGROV-1): > 100 µM (inactive)
GI50 (K562): > 100 µM (inactive)
GI50 (KM12): > 100 µM (inactive)
GI50 (LOX IMVI): > 100 µM (inactive)
GI50 (LXFL 529): > 100 µM (inactive)
GI50 (M14): > 100 µM (inactive)
GI50 (M19-MEL): > 100 µM (inactive)
GI50 (MOLT-4): > 100 µM (inactive)
GI50 (Malme-3M): > 100 µM (inactive)
GI50 (NCI-H226): > 100 µM (inactive)
GI50 (NCI-H23): > 100 µM (inactive)
GI50 (NCI-H460): > 100 µM (inactive)
GI50 (NCI-H522): > 100 µM (inactive)
GI50 (OVCAR-3): > 100 µM (inactive)
GI50 (OVCAR-4): > 100 µM (inactive)
GI50 (OVCAR-5): > 100 µM (inactive)
GI50 (OVCAR-8): > 100 µM (inactive)
GI50 (RPMI-8226): > 100 µM (inactive)
GI50 (SF-268): > 100 µM (inactive)
GI50 (SF-295): > 100 µM (inactive)
GI50 (SF-539): > 100 µM (inactive)
GI50 (SK-MEL-28): > 100 µM (inactive)
GI50 (SK-MEL-2): > 100 µM (inactive)
GI50 (SK-MEL-5): > 100 µM (inactive)
GI50 (SK-OV-3): > 100 µM (inactive)
GI50 (SNB-19): > 100 µM (inactive)
GI50 (SNB-75): 35.2 µM (inactive)
GI50 (SNB-78): > 100 µM (inactive)
GI50 (SR): > 100 µM (inactive)
GI50 (SW-620): > 100 µM (inactive)
GI50 (TK-10): > 100 µM (inactive)
GI50 (U-251): > 100 µM (inactive)
GI50 (UACC-257): > 100 µM (inactive)
GI50 (UACC-62): > 100 µM (inactive)
GI50 (UO-31): > 100 µM (inactive)
GI50 (XF498): > 100 µM (inactive)
